Patent US20240207427A1, “SELECTIVE DRUG RELEASE FROM INTERNALIZED CONJUGATES OF BIOLOGICALLY ACTIVE COMPOUNDS” (priority 2021, published 2024)
Read-outs that look alike come from different tables or passages of the source.

Columns and labels:
Type in all cases: cell-based
[1] = system: anaplastic large cell lymphoma cells (DEL); assay: In vitro potency (CellTiter-Glo, 96 h), DEL
Protocol: (§1) In vitro potency was assessed on multiple cancer cell lines. All cell lines were authenticated by STR profiling at IDEXX Bioresearch and cultured for no more than 2 months after resuscitation. Cells cultured in log-phase growth were seeded for 24 hours in 96-well plates containing […] RPMI 1640 supplemented with 20% FBS. Serial dilutions of antibody-drug conjugates in cell culture media were prepared at 4× working concentrations, and 50 μL of each dilution was added to the 96-well plates. Following addition of test articles, cells were incubated with test articles for 4 days at 37 0° C. After 96 hours, growth inhibition was assessed by CellTiterGlo® (Promega, Madison, WI) and luminescence was measured on a plate reader.
(§2) In Table 7, IC50 values for ADCs are given in ng/mL. Cell viability was determined by CellTiter-Glo staining after 96 h exposure to ADC. ND=Not Determined. Ag2 is an antibody targeting a ubiquitous and readily internalizable antigen. The cancer cell lines tested are renal carcinoma cells (786-0), melanoma cells (A2058), pancreatic cancer cells (BxPC3), non-small-cell lung cancer cells (Calu1), anaplastic large cell lymphoma cells (DEL, DELBVR, Karpas299), Hodgkin's lymphoma cells (L540cy), (Ls174T), breast cancer cells (MDA-MB-231), acute myeloid leukemia cells (MOLM-13), and B-lymphocyte cancer cells (SU-DHL4).
as §1, with “FBS.” for “FBS. Serial dilutions of antibody-drug conjugates in cell culture media were prepared at 4× working concentrations, and 50 μL of each dilution was added to the 96-well plates.”
(§3) Cell viability was determined by CellTiter-Glo staining after 96 h exposure to the compound. ND=Not Determined. The cancer cell lines tested are renal carcinoma cells (786-0), melanoma cells (A2058), pancreatic cancer cells (BxPC3), non-small-cell lung cancer cells (Calu1), anaplastic large cell lymphoma cells (DEL, DELBVR, Karpas299), Hodgkin's lymphoma cells (L540cy), (Ls 174T), breast cancer cells (MDA-MB-231), acute myeloid leukemia cells (MOLM-13), B-lymphocyte cancer cells (SU-DHL4), multiple myeloma cells (MM.1R), (U266), and melanoma cells (SK-MEL-5).
as §1, with “37°” for “37 0°”
(§4) In the following Tables IC50 values for ADCs and CPT free drugs are given in ng/mL and nmol/L concentrations. Cell viability was determined by CellTiter-Glo staining after 96 h exposure to ADC or CPT free drug.
(§5) Cell viability was determined by CellTiter-Glo staining after 96 h exposure to ADC. ND=Not Determined.

[2] = system: Hodgkin's lymphoma cells (L540cy); assay: In vitro potency (CellTiter-Glo, 96 h), L540cy
Protocol: as §1, §2
as §1, with “FBS.” for “FBS. Serial dilutions of antibody-drug conjugates in cell culture media were prepared at 4× working concentrations, and 50 μL of each dilution was added to the 96-well plates.”
as §3
as §1, with “37°” for “37 0°”
as §4, §5

[3] = system: acute myeloid leukemia cells (MOLM-13); assay: In vitro potency (CellTiter-Glo, 96 h), MOLM-13; conditions: Homo sapiens, MOLM-13, 96 h
Protocol: as §1, §2
as §1, with “FBS.” for “FBS. Serial dilutions of antibody-drug conjugates in cell culture media were prepared at 4× working concentrations, and 50 μL of each dilution was added to the 96-well plates.”
as §3
as §1, with “37°” for “37 0°”
as §4, §5

[4] = system: pancreatic cancer cells (BxPC3); assay: In vitro potency (CellTiter-Glo, 96 h), BxPC3; conditions: Homo sapiens, BXPC-3, 96 h
Protocol: as §1, §2
as §1, with “FBS.” for “FBS. Serial dilutions of antibody-drug conjugates in cell culture media were prepared at 4× working concentrations, and 50 μL of each dilution was added to the 96-well plates.”
as §3
as §1, with “37°” for “37 0°”
as §4, §5

[5] = system: anaplastic large cell lymphoma cells (DELBVR); assay: In vitro potency (CellTiter-Glo, 96 h), DELBVR
Protocol: as §1, §2
as §1, with “FBS.” for “FBS. Serial dilutions of antibody-drug conjugates in cell culture media were prepared at 4× working concentrations, and 50 μL of each dilution was added to the 96-well plates.”
as §3
as §1, with “37°” for “37 0°”
as §4, §5

[6] = system: breast cancer cells (MDA-MB-231); assay: In vitro potency (CellTiter-Glo, 96 h), MDA-MB-231; conditions: Homo sapiens, MDA-MB-231, 96 h
Protocol: as §1, §2
as §1, with “FBS.” for “FBS. Serial dilutions of antibody-drug conjugates in cell culture media were prepared at 4× working concentrations, and 50 μL of each dilution was added to the 96-well plates.”
as §3
as §1, with “37°” for “37 0°”
as §4, §5

[7] = system: renal carcinoma cells (786-O); assay: In vitro potency (CellTiter-Glo, 96 h), 786-O; conditions: Homo sapiens, 786-0, 96 h
Protocol: as §1, §2
as §1, with “FBS.” for “FBS. Serial dilutions of antibody-drug conjugates in cell culture media were prepared at 4× working concentrations, and 50 μL of each dilution was added to the 96-well plates.”
as §3
as §1, with “37°” for “37 0°”
as §4, §5

[8] = system: Ls174T cells; assay: In vitro potency (CellTiter-Glo, 96 h), Ls174T; conditions: Homo sapiens, LS174T, 96 h, 96 h
Protocol: as §1, §2
as §1, with “FBS.” for “FBS. Serial dilutions of antibody-drug conjugates in cell culture media were prepared at 4× working concentrations, and 50 μL of each dilution was added to the 96-well plates.”
as §3
as §1, with “37°” for “37 0°”
as §4, §5

[9] = system: melanoma cells (A2058); assay: In vitro potency (CellTiter-Glo, 96 h), A2058; conditions: Homo sapiens, A2058, 96 h, read-out: A2058 IC50
Protocol: as §1, §2
as §1, with “FBS.” for “FBS. Serial dilutions of antibody-drug conjugates in cell culture media were prepared at 4× working concentrations, and 50 μL of each dilution was added to the 96-well plates.”
as §3
as §1, with “37°” for “37 0°”
as §4, §5

[10] = system: anaplastic large cell lymphoma cells (Karpas299); assay: In vitro potency (CellTiter-Glo, 96 h), Karpas299; conditions: Homo sapiens, KARPAS-299, 96 h
Protocol: as §1, §2
as §1, with “FBS.” for “FBS. Serial dilutions of antibody-drug conjugates in cell culture media were prepared at 4× working concentrations, and 50 μL of each dilution was added to the 96-well plates.”
as §3
as §1, with “37°” for “37 0°”
as §4, §5

[11] = system: B-lymphocyte cancer cells (SU-DHL4); assay: In vitro potency (CellTiter-Glo, 96 h), SU-DHL-4; conditions: Homo sapiens, SU-DHL-4, 96 h
Protocol: as §1, §2
as §1, with “FBS.” for “FBS. Serial dilutions of antibody-drug conjugates in cell culture media were prepared at 4× working concentrations, and 50 μL of each dilution was added to the 96-well plates.”
as §3
as §1, with “37°” for “37 0°”
as §4, §5

[12] = system: non-small-cell lung cancer cells (Calu1); assay: In vitro potency (CellTiter-Glo, 96 h), Calu1; conditions: Homo sapiens, Calu-1, 96 h, Table 28; CPT free drugs; non-small-cell lung cancer cells Calu1; 96 h, CellTiter-Glo; read-out: Calu1 IC50
Protocol: as §1, §2
as §1, with “FBS.” for “FBS. Serial dilutions of antibody-drug conjugates in cell culture media were prepared at 4× working concentrations, and 50 μL of each dilution was added to the 96-well plates.”
as §3
as §1, with “37°” for “37 0°”
as §4, §5

[13] = read-out: DEL IC50, camptothecin free drug, 96 h
[14] = read-out: L540cy IC50, camptothecin free drug, 96 h
[15] = read-out: MOLM-13 IC50, camptothecin free drug, 96 h
[16] = read-out: BxPC3 IC50, camptothecin free drug, 96 h
[17] = read-out: DELBVR IC50, camptothecin free drug, 96 h
[18] = read-out: MDAMB231 IC50, camptothecin free drug, 96 h
[19] = read-out: 786-O IC50, camptothecin free drug, 96 h
[20] = read-out: Ls174T IC50, camptothecin free drug, 96 h
[21] = read-out: Karpas299 IC50, camptothecin free drug, 96 h
[22] = read-out: SU-DHL-4 IC50, camptothecin free drug, 96 h

Row | SMILES | IC50 [1, 13] | IC50 [2, 14] | IC50 [3, 15] | IC50 [4, 16] | IC50 [5, 17] | IC50 [6, 18] | IC50 [7, 19] | IC50 [8, 20] | IC50 [9] | IC50 [10, 21] | IC50 [11, 22] | further results
1 | CC[C@@]1(O)C(=O)OCc2c1cc1n(c2=O)Cc2c-1nc1cc3c(cc1c2CNCC(O)CN1CCOCC1)OCO3 (some centres unmarked) [Compound 7i] | 38 nM | 63 nM | 312 nM | 106 nM | 51 nM | 1000 nM | 128 nM | 72 nM | 33 nM | 154 nM | 72 nM | IC50 ([1]; read-out: DEL IC50, Table 29, CPT free drugs, anaplastic large cell lymphoma cells DEL, CellTiter-Glo): 9 nM; IC50 ([2]; read-out: L540cy IC50, Table 29, CPT free drugs, Hodgkin's lymphoma cells L540cy, CellTiter-Glo): 48 nM; IC50 ([3]; read-out: MOLM-13 IC50, Table 29, CPT free drugs, acute myeloid leukemia cells MOLM-13, 96 h, CellTiter-Glo): 183 nM; IC50 ([4]; read-out: BxPC3 IC50, Table 29, CPT free drugs, pancreatic cancer cells BxPC3, 96 h, CellTiter-Glo): 57 nM; IC50 ([5]; read-out: DELBVR IC50, Table 29, CPT free drugs, anaplastic large cell lymphoma cells DELBVR, CellTiter-Glo): 17 nM; IC50 ([6]; read-out: MDAMB231 IC50, Table 29, CPT free drugs, breast cancer cells MDA-MB-231, 96 h, CellTiter-Glo): 183 nM; IC50 ([7]; read-out: 786-O IC50, Table 29, CPT free drugs, renal carcinoma cells 786-O, 96 h, CellTiter-Glo): 118 nM; IC50 ([8]; read-out: Ls174T IC50, Table 29, CPT free drugs, Ls174T cells, CellTiter-Glo): 110 nM; IC50 ([10]; read-out: Karpas299 IC50, Table 29, CPT free drugs, anaplastic large cell lymphoma cells Karpas299, 96 h, CellTiter-Glo): 84 nM; IC50 ([11]; read-out: SU-DHL-4 IC50, Table 29, CPT free drugs, B-lymphocyte cancer cells SU-DHL4, 96 h, CellTiter-Glo): 32 nM
2 | CC[C@@]1(O)C(=O)OCc2c1cc1n(c2=O)Cc2c-1nc1cc(F)c(SC)cc1c2CN [Compound 2at] |  |  |  |  |  |  |  |  |  |  |  | IC50 [12]: 37 nM
3 | CC[C@@]1(O)C(=O)OCc2c1cc1n(c2=O)Cc2c-1nc1cc3c(cc1c2CN1CCN(CCNC(=O)OC(C)(C)C)CC1)OCO3 [Compound 7af] |  |  |  |  |  |  |  |  |  |  |  | IC50 ([1]; camptothecin free drug, read-out: DEL IC50): 15 nM; IC50 ([2]; camptothecin free drug, read-out: L540cy IC50): 62 nM; IC50 ([3]; camptothecin free drug, 96 h, read-out: MOLM-13 IC50): 110 nM; IC50 ([4]; camptothecin free drug, 96 h, read-out: BxPC3 IC50): 176 nM; IC50 ([5]; camptothecin free drug, read-out: DELBVR IC50): 24 nM; IC50 ([6]; camptothecin free drug, 96 h, read-out: MDAMB231 IC50): 1000 nM; IC50 ([7]; camptothecin free drug, 96 h, read-out: 786-O IC50): 177 nM; IC50 ([8]; camptothecin free drug, read-out: Ls174T IC50): 80 nM; IC50 ([9]; camptothecin free drug, 96 h): 38 nM; IC50 ([10]; camptothecin free drug, 96 h, read-out: Karpas299 IC50): 127 nM; IC50 ([11]; camptothecin free drug, 96 h, read-out: SU-DHL-4 IC50): 48 nM
4 | CC[C@@]1(O)C(=O)OCc2c1cc1n(c2=O)Cc2c-1nc1cc3c(cc1c2CNCCCN(C)C)OCO3 [Compound 7t] | 58 nM | 70 nM | 326 nM | 171 nM | 55 nM | 1000 nM | 153 nM | > 1000 nM | 64 nM | 166 nM | 97 nM | 
